Reference: the NIST ThermoML archive (doi:10.1016/j.jct.2018.02.014)

Experiments:
[1] = 101.33 kPa, Liquid; for viscosity: Falling or rolling sphere viscometry; for mass density: Vibrating tube method
[2] = activity coefficient (dimensionless); of the first substance listed, at infinite dilution; xn = mol fraction of the nth substance listed; conditions: 101.33 kPa, Liquid, Chromatography, x1 = 0

CC[N+]1(C)CCOCC1.N#CN=C=[N-] [N-ethyl-N-methylmorpholinium dicyanamide]
[1]
Conditions	mass density [kg/m3]	viscosity [mPa·s]
298.15 K	1123.2	176
303.15 K	1120.2	–
308.15 K	1117.2	106
313.15 K	1114.2	–
318.15 K	1111.3	68.3
323.15 K	1108.4	–
328.15 K	1105.4	47.4
333.15 K	1102.5	–
338.15 K	1099.7	33.7
343.15 K	1096.8	–
348.15 K	1093.9	24.8
353.15 K	1091.1	–
358.15 K	1088.3	19.2
363.15 K	1085.5	–
368.15 K	1082.7	15.6

O [water] + CC[N+]1(C)CCOCC1.N#CN=C=[N-]
[2]
Conditions	activity coefficient
318.15 K	0.324
328.15 K	0.337
338.15 K	0.35
348.15 K	0.364
358.15 K	0.376
368.15 K	0.39
